Like-named read-outs stand apart in the source and are kept apart here.
Experiments:
HUVECs = assay: Tube formation (tubulogenesis) assay in HUVECs, 18 h; type: cell-based, human; conditions: Homo sapiens, HUVEC, 18 h, HUVECs; for activity at 0.1 µM: 0.10 µM; for minimal effective concentration: top concentration 100.00 µM
How it was run: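 HUVECs (passage 1–5) seeded on reduced-growth-factor basement membrane and exposed to compounds overnight at 37°C, 5% CO2, in 2× maintenance medium with 12.5 ng/mL VEGF; 0.5% DMSO vehicle. Calcein AM-stained tube networks imaged and analysed; vehicle-normalized readouts fit to four-parameter logistic, POD set at one SD of vehicle means.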

[1] = tested on: iCell endothelial cells (human iPSC-derived ECs); assay: High-content imaging cytotoxicity in iCell endothelial cells, 24 h; type: cell-based; conditions: Homo sapiens, Endothelial cell, iPSC-EC, 24 hr; for viability at 0.1 µM / activity at 0.1 µM: 0.10 µM; for minimal effective concentration: top concentration 100.00 µM
How it was run: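 Readouts were vehicle-normalised and fitted to a four-parameter logistic model. POD was set at one SD beyond 0.5% DMSO control means, and 100 µM was assigned when no response was seen. Cells were monolayers of iCell endothelial cells imaged after 24 h compound exposure using nuclear, mitochondrial and calcein dyes.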

[2] = 0.00 µM = 100.00, read-out: huvec.mtl.18hr
[3] = 0.00 µM = 100.00, read-out: huvec.tlps.18hr
[4] = 0.00 µM = 100.00, read-out: huvec.tta.18hr
[5] = 0.00 µM = 100.00, read-out: huvec.ttl.18hr
[6] = 0.00 µM control = 100.00, read-out: endo.cyto.24hr
[7] = 0.00 µM control = 100.00, read-out: endo.mito.24hr
[8] = 0.00 µM control = 100.00, read-out: endo.mitoint.24hr
[9] = 0.00 µM control = 100.00, read-out: endo.nma.24hr
[10] = 0.00 µM control = 100.00, read-out: endo.tc.24hrs

Oc1ccccc1-c1ccc(Cl)cc1 [2'-OH PCB3]
activity at 0.01 µM (HUVECs; [2]): 96%
activity at 0.01 µM (HUVECs; [3]): 85.8%
activity at 0.01 µM (HUVECs; [4]): 84%
activity at 0.01 µM (HUVECs; [5]): 89.1%
activity at 0.1 µM (HUVECs; [2]): 77.3%
activity at 0.1 µM (HUVECs; [3]): 49.3%
activity at 0.1 µM (HUVECs; [4]): 42.9%
activity at 0.1 µM (HUVECs; [5]): 47.4%
activity at 1 µM (HUVECs; [2]): 95.4%
activity at 1 µM (HUVECs; [3]): 65%
activity at 1 µM (HUVECs; [4]): 71.9%
activity at 1 µM (HUVECs; [5]): 75%
activity at 10 µM (HUVECs; [2]): 92.4%
activity at 10 µM (HUVECs; [3]): 77.5%
activity at 10 µM (HUVECs; [4]): 65.8%
activity at 10 µM (HUVECs; [5]): 69.6%
activity at 100 µM (HUVECs; [2]): 73.9%
activity at 100 µM (HUVECs; [3]): 35.5%
activity at 100 µM (HUVECs; [4]): 64%
activity at 100 µM (HUVECs; [5]): 49.6%
minimal effective concentration (HUVECs; read-out: huvec.mtl.18hr POD): 100 µM
minimal effective concentration (HUVECs; read-out: huvec.tlps.18hr POD): 0.57 µM
minimal effective concentration (HUVECs; read-out: huvec.tta.18hr POD): 100 µM
minimal effective concentration (HUVECs; read-out: huvec.ttl.18hr POD): 100 µM
viability at 0.01 µM [1, 6]: 99.2%
activity at 0.01 µM [1, 7]: 99.4%
activity at 0.01 µM [1, 8]: 117%
activity at 0.01 µM [1, 9]: 98.3%
viability at 0.01 µM [1, 10]: 99.2%
viability at 0.1 µM [1, 6]: 96.5%
activity at 0.1 µM [1, 7]: 97%
activity at 0.1 µM [1, 8]: 101%
activity at 0.1 µM [1, 9]: 98.8%
viability at 0.1 µM [1, 10]: 96.5%
viability at 1 µM [1, 6]: 100%
activity at 1 µM [1, 7]: 100%
activity at 1 µM [1, 8]: 108%
activity at 1 µM [1, 9]: 96.4%
viability at 1 µM [1, 10]: 100%
viability at 10 µM [1, 6]: 103%
activity at 10 µM [1, 7]: 103%
activity at 10 µM [1, 8]: 124%
activity at 10 µM [1, 9]: 97%
viability at 10 µM [1, 10]: 103%
viability at 100 µM [1, 6]: 57.8%
activity at 100 µM [1, 7]: 61.3%
activity at 100 µM [1, 8]: 87.3%
activity at 100 µM [1, 9]: 89.5%
viability at 100 µM [1, 10]: 87%
minimal effective concentration ([1]; read-out: endo.cyto.24hr POD): 44.3 µM
minimal effective concentration ([1]; read-out: endo.mito.24hr POD): 44.3 µM
minimal effective concentration ([1]; read-out: endo.mitoint.24hr POD): 100 µM
minimal effective concentration ([1]; read-out: endo.nma.24hr POD): 1.82 µM
minimal effective concentration ([1]; read-out: endo.tc.24hrs POD): 68.2 µM

From publication PMC7377239, “Cardiovascular Effects of Polychlorinated Biphenyls and Their Major Metabolites” (Environmental Health Perspectives, 2020)
